Test results as given in patent US20230141600A1, “IMIDAZOPYRAZINE DERIVATIVES” (priority 2020, published 2023).
Counter-ions that a name gives are not always drawn.

The compounds below were run on Acinetobacter baumannii ATCC17978 (assay: 90% growth inhibitory concentration (IC90) determination, antimicrobial susceptibility testing). Conditions: ATCC17978, 90% growth inhibition, Iso-Sensitest broth, OD 600 nm over 16 h, 35±2° C., read-out: ATCC 17978 IC90.
Assay type: cell-based
Experimental: Antimicrobial Susceptibility Testing:
90% Growth Inhibitory Concentration (IC90) Determination
The in vitro antimicrobial activity of the compounds was determined according to the following procedure:
The assay used a 10-points Iso-Sensitest broth medium to measure quantitatively the in vitro activity of the compounds against Acinetobacter baumannii ATCC17961 and ATCC17978.
Stock compounds in DMSO were serially twofold diluted (e.g. range from 50 to 0.097 μM final concentration) in 384 wells microtiter plates and inoculated with 49 μl the bacterial suspension in Iso-Sensitest medium to have a final cell concentration of ˜5×10^(5) CFU/ml in a final volume/well of 50 ul/well. Microtiter plates were incubated at 35±2° C.
Bacterial cell growth was determined with the measurement of optical density at λ=600 nm each minutes over a time course of 16 h. Growth inhibition was calculated during the logarithmic growth of the bacterial cells with determination of the concentration inhibiting 50% (IC50) and 90% (IC90) of the growth.
Table 1 provides the 90% growth inhibitory concentrations (IC90) in micromoles per liter of the compounds of present invention obtained against the strain Acinetobacter baumannii ATCC17978.

Compound | IC90 [nM]
COc1ccc(-c2cnc3c(Nc4ccc(C(=O)N(C)CCC5CC[N+](C)(C)CC5)c(C)c4)nccn23)c(F)c1F [Example 22, 4-[[3-(2,3-Difluoro-4-methoxy-phenyl)imidazo[1,2-a]pyrazin-8-yl]amino]-N-[2-(1,1-dimethylpiperidin-1-ium-4-yl)ethyl]-N,2-dimethyl-benzamide 2,2,2-trifluoroacetate] | 260
COc1ccc(-c2cnc3c(Nc4ccc(C(=O)NCCC5CC[N+](C)(CC(=O)O)CC5)c(C)c4)nccn23)cc1 (stereo not drawn) [Example 23, 1-(carboxymethyl)-4-(2-(4-((3-(4-methoxyphenyl)imidazo[1,2-a]pyrazin-8-yl)amino)-2-methylbenzamido)ethyl)-1-methylpiperidin-1-ium Formate] | 2220
CC[N+]1(CC)CCC(CCN(C)C(=O)c2ccc(Nc3nccn4c(-c5ccc(OC(F)F)cc5)cnc34)cc2C)CC1 [Example 24, 4-(2-(4-((3-(4-(difluoromethoxy)phenyl)imidazo[1,2-a]pyrazin-8-yl)amino)-N,2-dimethylbenzamido)ethyl)-1,1-diethylpiperidin-1-ium Formate] | 742
Cc1cc(Nc2nccn3c(-c4ccc(OC(F)F)cc4)cnc23)ccc1C(=O)NCCCCCC[N+](C)(C)C [Example 25, 6-(4-((3-(4-(difluoromethoxy)phenyl)imidazo[1,2-a]pyrazin-8-yl)amino)-2-methylbenzamido)-N,N,N-trimethylhexan-1-aminium Formate] | 591
C[N+](C)(C)CCN1CCN(C(=O)c2ccc(Nc3nccn4c(-c5ccc(OCC#N)c(F)c5F)cnc34)cc2Cl)CC1 [Example 26, 2-[4-[2-chloro-4-[[3-[4-(cyanomethoxy)-2,3-difluorophenyl]imidazo[1,2-a]pyrazin-8-yl]amino]benzoyl]piperazin-1-yl]ethyl-trimethylazanium Iodide] | 156
COc1ccc(-c2cnc3c(Nc4ccc(C(=O)N5CCC(C(=O)NCC[N+](C)(C)C)CC5)c(C)c4)nccn23)cc1F [Example 27, 2-(1-(4-((3-(3-Fluoro-4-methoxyphenyl)imidazo[1,2-a]pyrazin-8-yl)amino)-2-methylbenzoyl)piperidine-4-carboxamido)-N,N,N-trimethylethanaminium Formate] | 249
CCc1cc(Nc2nccn3c(-c4ccc(Cl)c(F)c4F)cnc23)ccc1C(=O)NCCC[N+](C)(C)C [Example 28, 3-(4-((3-(4-Chloro-2,3-difluorophenyl)imidazo[1,2-a]pyrazin-8-yl)amino)-2-ethylbenzamido)-N,N,N-trimethylpropan-1-aminium Formate] | 605
Cc1cc(Nc2nccn3c(-c4ccc(OC(F)F)cc4)cnc23)ccc1C(=O)N1CCC(CC[N+](C)(C)C)CC1 [Example 29, 2-(1-(4-((3-(4-(Difluoromethoxy)phenyl)imidazo[1,2-a]pyrazin-8-yl)amino)-2-methylbenzoyl)piperidin-4-yl)-N,N,N-trimethylethanaminium Formate] | 293
Cc1cc(Nc2nccn3c(-c4ccc(OC(F)F)cc4)cnc23)ccc1C(=O)N1CCN(C(=O)N2CC[N+](C)(C)CC2)CC1 [Example 30, [4-[[3-[4-(Difluoromethoxy)phenyl]imidazo[1,2-a]pyrazin-8-yl]amino]-2-methyl-phenyl]-[4-(4,4-dimethylpiperazin-4-ium-1-carbonyl)piperazin-1-yl]methanone Formate] | 497
COc1ccc(-c2cnc3c(Nc4ccc(C(=O)N5CCN(C(=O)C[N+](C)(C)C)CC5)c(Cl)c4)nccn23)cc1F [Example 31, [2-[4-[2-Chloro-4-[[3-(3-fluoro-4-methoxyphenyl)imidazo[1,2-a]pyrazin-8-yl]amino]benzoyl]piperazin-1-yl]-2-oxoethyl]-trimethylazanium Formate] | 120
COc1ccc(-c2cnc3c(Nc4ccc(C(=O)N5CCN(C(=O)C[N+](C)(C)C)CC5)c(C)c4)nccn23)cc1F [Example 32, 2-(4-(4-((3-(3-Fluoro-4-methoxyphenyl)imidazo[1,2-a]pyrazin-8-yl)amino)-2-methylbenzoyl)piperazin-1-yl)-N,N,N-trimethyl-2-oxoethan-1-aminium Iodide] | 307
Cc1cc(Nc2nccn3c(-c4ccc(OC(F)F)cc4)cnc23)ccc1C(=O)N1CCN(C(=O)N2CCOC(C[N+](C)(C)C)C2)CC1 (stereo not drawn) [Example 33, [4-[4-[4-[[3-[4-(Difluoromethoxy)phenyl]imidazo[1,2-a]pyrazin-8-yl]amino]-2-methyl-benzoyl]piperazine-1-carbonyl]morpholin-2-yl]methyl-trimethyl-ammonium Formate] | 996
CN(CCN1CC[N+](C)(C)CC1)C(=O)c1ccc(Nc2nccn3c(-c4ccc(OCC#N)c(F)c4F)cnc23)cc1Cl [Example 34, 2-Chloro-4-[[3-[4-(cyanomethoxy)-2,3-difluoro-phenyl]imidazo[1,2-a]pyrazin-8-yl]amino]-N-[2-(4,4-dimethylpiperazin-4-ium-1-yl)ethyl]-N-methyl-benzamide iodide] | 246
COc1ccc(-c2cnc3c(Nc4ccc(C(=O)N(C)CCOCC[N+](C)(C)C)c(C)c4)nccn23)cc1F [Example 35, 2-(2-(4-((3-(3-Fluoro-4-methoxyphenyl)imidazo[1,2-a]pyrazin-8-yl)amino)-N,2-dimethylbenzamido)ethoxy)-N,N,N-trimethylethan-1-aminium Chloride] | 1050
Cc1cc(Nc2nccn3c(-c4ccc(OC(F)F)cc4)cnc23)ccc1C(=O)N1CCN(C(=O)NCC[N+](C)(C)C)CC1 [Example 36, 2-[[4-[4-[[3-[4-(Difluoromethoxy)phenyl]imidazo[1,2-a]pyrazin-8-yl]amino]-2-methyl-benzoyl]piperazine-1-carbonyl]amino]ethyl-trimethyl-ammonium Formate] | 431
CN(CCC1CC[N+](C)(C)CC1)C(=O)c1ccc(Nc2nccn3c(-c4ccc(OCC#N)c(F)c4F)cnc23)cc1Cl [Example 38, 2-Chloro-4-[[3-[4-(cyanomethoxy)-2,3-difluoro-phenyl]imidazo[1,2-a]pyrazin-8-yl]amino]-N-[2-(1,1-dimethylpiperidin-1-ium-4-yl)ethyl]-N-methyl-benzamide 2,2,2-trifluoroacetate] | 213
Cc1cc(Nc2nccn3c(-c4ccc(OC(F)F)cc4)cnc23)ccc1C(=O)N(C)CCC1CCN(C(=O)CC(O)C[N+](C)(C)C)CC1 (stereo not drawn) [Example 39, 4-(4-(2-(4-((3-(4-(Difluoromethoxy)phenyl)imidazo[1,2-a]pyrazin-8-yl)amino)-N,2-dimethylbenzamido)ethyl)piperidin-1-yl)-2-hydroxy-N,N,N-trimethyl-4-oxobutan-1-aminium Formate] | 2380
CCc1cc(Nc2nccn3c(-c4ccc(OC)c(F)c4F)cnc23)ccc1C(=O)NCCOCC[N+](CC)(CC)CC [Example 40, 2-(2-(4-((3-(2,3-Difluoro-4-methoxyphenyl)imidazo[1,2-a]pyrazin-8-yl)amino)-2-ethylbenzamido)ethoxy)-N,N,N-triethylethan-1-aminium Formate] | 165
CCc1cc(Nc2nccn3c(-c4ccc(OCC#N)c(F)c4F)cnc23)ccc1C(=O)NCCOCC[N+](C)(C)C [Example 41, 2-[2-[[4-[[3-[4-(Cyanomethoxy)-2,3-difluoro-phenyl]imidazo[1,2-a]pyrazin-8-yl]amino]-2-ethyl-benzoyl]amino]ethoxy]ethyl-trimethyl-ammonium Iodide] | 132
Cc1cc(Nc2nccn3c(-c4ccc(OC(F)F)cc4)cnc23)ccc1C(=O)N1CCN(C(=O)C[N+](C)(C)C)CC1 [Example 42, [2-[4-[4-[[3-[4-(Difluoromethoxy)phenyl]imidazo[1,2-a]pyrazin-8-yl]amino]-2-methyl-benzoyl]piperazin-1-yl]-2-oxo-ethyl]-trimethyl-ammonium Chloride] | 414
COc1ccc(-c2cnc3c(Nc4ccc(C(=O)NCCOCC[N+](C)(C)C)c(Br)c4)nccn23)c(F)c1F [Example 44, 2-[2-[[2-bromo-4-[[3-(2,3-difluoro-4-methoxy-phenyl)imidazo[1,2-a]pyrazin-8-yl]amino]benzoyl]amino]ethoxy]ethyl-trimethyl-ammonium 2,2,2-trifluoroacetate] | 148
CCC[N+](CCC)(CCC)CCOCCNC(=O)c1ccc(Nc2nccn3c(-c4ccc(OCC#N)c(F)c4F)cnc23)cc1Cl [Example 45, 2-[2-[[2-Chloro-4-[[3-[4-(cyanomethoxy)-2,3-difluoro-phenyl]imidazo[1,2-a]pyrazin-8-yl]amino]benzoyl]amino]ethoxy]ethyl-tripropyl-ammonium Iodide] | 321

Same assay, conditions: ATCC17978, 16 h, read-out: ATCC 17978 IC90

Compound | IC90 [nM]
COc1ccc(-c2cnc3c(Nc4ccc(C(=O)N(C)CCN5CC[N+](C)(C)CC5)c(Cl)c4)nccn23)c(F)c1F [Example 21, 2-chloro-4-[[3-(2,3-difluoro-4-methoxy-phenyl)imidazo[1,2-a]pyrazin-8-yl]amino]-N-[2-(4,4-dimethylpiperazin-4-ium-1-yl)ethyl]-N-methyl-benzamide 2,2,2-trifluoroacetate] | 480
COc1ccc(-c2cnc3c(Nc4ccc(C(=O)N5CC[C@@H](C(=O)NCC[N+](C)(C)C)[C@H](O)C5)c(C)c4)nccn23)cc1F [Example 37, 2-[[(3S,4R)-1-[4-[[3-(3-fluoro-4-methoxy-phenyl)imidazo[1,2-a]pyrazin-8-yl]amino]-2-methyl-benzoyl]-3-hydroxy-piperidine-4-carbonyl]amino]ethyl-trimethyl-ammonium Formate] | 4770
